# Data reported in paper PMC8069016, “Matrix Effects of the Hydroethanolic Extract of Calyces of Physalis peruviana L. on Rutin Pharmacokinetics in Wistar Rats Using Population Modeling” (Pharmaceutics, 2021).
# Like-named read-outs stand apart in the source and are kept apart here.
# Key:
# [1] = Pharmacokinetics of rutin after intravenous administration, non-compartmental analysis; format: in vivo, Wistar rats; conditions: for AUC(0-inf) / MRT / half-life / clearance / Vd: male, Wistar, rat, iv; for Vd: read-out: Vdss
# Procedure: (§1) The PK studies of rutin, both pure and from the extract of calyces of P. peruviana, were carried out using 50 male Wistar rats (7–11 weeks old and 250–300 g) obtained from the animal facility of the Department of Pharmacy of the Universidad Nacional de Colombia. The animals were kept under constant temperature conditions (22 ± 1 °C), with light/dark cycles of 12 h. They were provided with water and food ad libitum and fasted for 12 h before the assays. This protocol was approved by the ethics committee of the science faculty (Act 06, 2015, project 40831, 22 June 2015).
# For intravenous (i.v.) administration, the extract was prepared in sodium chloride solution (0.9% NaCl), vortexed, and sonicated 3–4 times for 15 min. Rutin was first dissolved in DMSO and then diluted in 0.9% NaCl. The clear solutions were administrated via the lateral tail vein of the rats. For the oral route (p.o.) experiments, the extract and rutin were suspended in water close to the time for oral gavage dosing. […] Rutin doses below 1.45 (i.v.) or 75 (p.o.) mg/kg could not show enough quantifiable analytical signals in blood plasma. For the extract, the doses were close to the active ones, according to previous studies by our group.
# Samples of the animals’ blood (approximately 250 µL) were taken by puncture in the lateral tail vein and collected in heparinized tubes at times 0, 0.05, 0.166, 0.333, 0.5, 0.75, 1, 1.5, 2, 3, 4, 6, 8, and 12 h for the i.v. experiments and at times 0, 0.083, 0.25, […], 0.75, 1, 2, 3, 4, 6, 8, 10, 12, and 24 h for the p.o. experiments.
# Blood plasma aliquots (50 µL) were added to a chrysin standard solution (internal standard (IS)) at a final concentration of 1000 ng/mL. Proteins were precipitated with methanol (1:2 v:v), and clear supernatants were obtained by centrifugation at 1200× g and at 4 °C for 15 min; 6 µL of each aliquot was used for instrumental analyses. Another 50 µL of blood plasma aliquots with the IS were treated with β-glucuronidase/arylsulfatase (120 Fishman units) in order to indirectly quantify the Q3OG and quercetin-3-O-sulfate (Q3OS) present in these samples by conversion into the parent quercetin (deconjugation). The deconjugation reaction was promoted by incubating the samples with the enzymes at pH 5.5 and 37 °C for 30 min. Reactions with the Q3OG standard (10,000 ng/mL) and blank blood plasma were included in each analysis set as positive and negative controls, respectively. After the reaction, proteins were precipitated, as indicated above.
# Rutin and quercetin quantification was carried out by UHPLC-UV using a Chromaster RS chromatograph (Hitachi, Tokyo, Japan) and a Kinetex® EVO C18 column (2.6 µm, 100 × 2.1 mm; Phenomenex, Torrance, CA, USA) with an oven setting at 30 °C and a UV detector at 260 nm. The mobile phase consisted of 0.1% formic acid in water (A) and in acetonitrile (B), flowing at 0.5 mL/min in a gradient from 75% A to 65% A up to 9.3 min and 5 min of re-equilibration. The method was validated according to FDA guidelines.
# The PK parameters of rutin and quercetin (produced by deconjugation of Q3OG and Q3OS) were first determined by non-compartmental analysis (NCA) using the software program Pkanalix 2019R1 (Lixoft®, Paris, France), set to linear trapezoidal integral mode. The area under the curve to infinity (AUC0-INF), clearance (Cl), volume of distribution at the steady state (Vdss), volume of distribution associated with the terminal phase (Vdz), first-order rate constant of elimination (k), terminal half-life (t1/2), mean residence time (MRT), maximum observed concentration (Cmax), and time of maximum observed concentration (tmax) were determined for the analytes detected for each intervention.
# [2] = Pharmacokinetics of quercetin (deconjugated Q3OG and Q3OS) after oral administration, non-compartmental analysis; format: in vivo, Wistar rats; conditions: p.o.; only quercetin after deconjugation of Q3OG and Q3OS was measurable
# Procedure: as §1
# For intravenous (i.v.) administration, the extract was prepared in sodium chloride solution (0.9% NaCl), vortexed, and sonicated 3–4 times for 15 min. Rutin was first dissolved in DMSO and then diluted in 0.9% NaCl. The clear solutions were administrated via the lateral tail vein of the rats. […] Rutin doses below 1.45 (i.v.) or 75 (p.o.) mg/kg could not show enough quantifiable analytical signals in blood plasma. […]
# Blood plasma aliquots (50 µL) were added to a chrysin standard solution (internal standard (IS)) at a final concentration of 1000 ng/mL. […] Another 50 µL of blood plasma aliquots with the IS were treated with β-glucuronidase/arylsulfatase (120 Fishman units) in order to indirectly quantify the Q3OG and quercetin-3-O-sulfate (Q3OS) present in these samples by conversion into the parent quercetin (deconjugation). […]
# [3] = set-up: method as in doi:10.1016/j.tifs.2017.07.008, PMID 32162346, PMID 30614249; conditions: low solubility and low permeability; cited from earlier work
# [4] = Population pharmacokinetic modeling of rutin, intravenous administration; format: in vivo, Wistar rats; conditions: rutin i.v.; for k12 pop / k21 pop / k pop / V_pop: Table S1
# Procedure: Population pharmacokinetic (PopPK) modeling for rutin and quercetin (produced by deconjugation of Q3OG and Q3OS) was performed using the software program Monolix 2019R1 (Lixoft®, Paris, France). One- and two-compartment structural models with first-order elimination were evaluated, and double first-order absorption was included for the oral dosing experiments. Analyses of the categorical covariates (pure rutin, extract, and doses) were performed, and those that were significant were added to the model (p < 0.05 for Pearson’s and Wald tests with stochastic approximation). Correlations between random effects of the parameters were also tested and added to the model, where appropriate (p < 0.05 for t-test). The final model, including the model of the residual error, was selected based on the observation of individual fit plots, Akaike’s information criteria (AIC) values, visual assessment of the observation-versus-prediction plot, the precision of the estimated parameters, and evaluation of the distribution of residuals. The model was internally validated by a visual predictive check (VPC) with 1000 simulated data.
# The general model equation for the PK parameters was (2) Pi=Ppop+βcovariate n+ηi,p, where Pi is the individual parameter, Ppop is the population parameter, β is a parameter representing the variability due to the significant covariate n, and η(i,p) is the individual deviation from Ppop. According to the probability distribution of individual parameters, P in the equation could be expressed as logP or logitP (logP/((1 − P)).
# Rutin (i.v.) from both sources was better fitted to a two-compartment model described by the following parameters: volume of the central compartment (V), k, and the distribution rate constants k12 and k21 (Figure 3a). The […] differential equations representing this model are expressed in Equations (3) and (4), where X1 and X2 are the amounts of the drug in the central and peripheral compartments, respectively. (3) dX1/dt=k21X2−k12+kX1 (4) dX2/dt=k12X1−k21X2
# The population parameters in Table 4 correspond to those of pure rutin (for the dosage set) that was used as a reference in the analysis of covariates. A similarity was noted between the values for Vpop (0.0646 L/kg) and Vdz of pure rutin from the NCA, especially at 2.9 mg/kg (0.068 L/kg). The Clpop parameter, estimated from Vpop and kpop, was equivalent to the Cl of pure rutin from the NCA (in both cases 0.095 L/h/kg for the set of doses). […] Equations (5)–(8) describe the model of covariates, where η is the individual deviation from Ppop. (5) log(V/1−V)=log(Vpop/1−Vpop)+βVGEXT+ηV (6) logk=logkpop+βkGEXT+ηk (7) logk12=logk12pop (8) logk21=logk21pop
# [5] = Stability in plasma (bioanalytical method validation); format: in vitro ADME, rats; conditions: Wistar, rat; plasma at acidic pH; 2 h at 4 °C, 30 d at −80 °C, and 3 freeze/thaw cycles
# Procedure: Rutin and quercetin quantification was carried out by UHPLC-UV using a Chromaster RS chromatograph (Hitachi, Tokyo, Japan) and a Kinetex® EVO C18 column (2.6 µm, 100 × 2.1 mm; Phenomenex, Torrance, CA, USA) with an oven setting at 30 °C and a UV detector at 260 nm. The mobile phase consisted of 0.1% formic acid in water (A) and in acetonitrile (B), flowing at 0.5 mL/min in a gradient from 75% A to 65% A up to 9.3 min and 5 min of re-equilibration. The method was validated according to FDA guidelines. The UHPLC-UV method used for rutin and quercetin quantification in the blood plasma samples was selective and specific for these analytes and for the IS (Figure S2) and met all the criteria of the FDA guidelines. Linearity was described for the equations y = 0.00042x + 0.00910 (r^2 0.9996) and y = 0.00056 − 0.00767 (r^2 0.99980) for rutin and quercetin, respectively, at the concentration range from 100 to 10,000 ng/mL with a 1/x^2 weighting factor. Accuracy and precision were ≥85.6% (as recovery) and ≤7.2% (as variation coefficient), respectively, for both analytes, and these parameters were not affected by dilutions of over-concentrated samples up to 20 times the upper limit of quantification (recovery ≥ 86.3%).
# [6] = rutin in plasma, pure rutin i.v. 1.45 mg/kg
# [7] = rutin in plasma, pure rutin i.v. 2.9 mg/kg
# [8] = run Pure rutin and extract model: final model
# [9] = run Pure rutin and extract model: model of covariate 1
# [10] = run Pure rutin: one compartment model, first order elimination
# [11] = run Pure rutin: selection of model error and final model
# [12] = run Pure rutin: two-compartment model, first order elimination
# [13] = two-compartment popPK model, pure rutin (dosage set) as reference
smiles,measurement,setting,value
"C[C@@H]1O[C@@H](OC[C@H]2O[C@@H](Oc3c(-c4ccc(O)c(O)c4)oc4cc(O)cc(O)c4c3=O)[C@H](O)[C@@H](O)[C@@H]2O)[C@H](O)[C@H](O)[C@H]1O [Rutin, quercetin-3-O-rutinoside]",AUC(0-inf),[1]; [6],14900 ng·h/mL
same,MRT,[1]; [6],64.8 ± 10.6 min
same,half-life,[1]; [6],39.6 ± 7.8 min
same,clearance,"[1]; rutin in plasma, pure rutin i.v. 1.45 mg/kg, read-out: Cl (converted)",1.67 mL/min/kg
same,Vd,[1]; [6],0.11 ± 0.0306 L/kg
same,AUC(0-inf),[1]; [7],33900 ng·h/mL
same,MRT,[1]; [7],48.6 ± 3.18 min
same,half-life,[1]; [7],32.4 ± 3.72 min
same,clearance,"[1]; rutin in plasma, pure rutin i.v. 2.9 mg/kg, read-out: Cl (converted)",1.5 mL/min/kg
same,Vd,[1]; [7],0.07 ± 0.009 L/kg
same,clearance,"[1]; plasma, rutin i.v., pure rutin, set of doses, read-out: Cl from the NCA (converted)",1.58 mL/min/kg
same,AUC/dose × 10^−3,[1]; [6],"10,243.52 ± 1743.478 h/L"
same,Vdz,[1]; [6],0.096 ± 0.027 L/kg
same,k,[1]; [6],1.08 ± 0.195 h⁻¹
same,AUC/dose × 10^−3,[1]; [7],"11,701.24 ± 992.522 h/L"
same,k,[1]; [7],1.29 ± 0.159 h⁻¹
same,Vdz,"[1]; rutin in plasma, pure rutin i.v. 2.9 mg/kg, 2.9 mg/kg",0.068 ± 0.012 L/kg
same,Vdz,"[1]; rutin in plasma, pure rutin i.v. 2.9 mg/kg, listed as pure rutin, 2.9 mg/kg",0.068 L/kg
same,plasma concentrations of rutin or free quercetin after oral administration,[2],did not allow measurable plasma concentrations of rutin or free quercetin
same,biopharmaceutical classification system class,[3],class IV
same,k12 pop,[4]; [8],2.6 h⁻¹
same,k21 pop,[4]; [8],13.6 h⁻¹
same,k pop,[4]; [8],1.47 h⁻¹
same,V_pop,[4]; [9],5.9 e-5
same,k12 pop,[4]; [9],2.62 h⁻¹
same,k21 pop,[4]; [9],9.67 h⁻¹
same,k pop,[4]; [9],1.58 h⁻¹
same,V_pop,[4]; [10],7.81 e−5
same,k pop,[4]; [10],1.22 h⁻¹
same,V_pop,[4]; [11],6.4e -5
same,k12 pop,[4]; [11],2.5 h⁻¹
same,k21 pop,[4]; [11],16.8 h⁻¹
same,k pop,[4]; [11],1.48 h⁻¹
same,V_pop,[4]; [12],5.89e -5
same,k12 pop,[4]; [12],5.24 h⁻¹
same,k21 pop,[4]; [12],19.4 h⁻¹
same,k pop,[4]; [12],1.61 h⁻¹
same,Clpop,"[4]; estimated from Vpop and kpop, set of doses",1.58 mL/min/kg
same,Vpop (volume of the central compartment),[4]; [13],0.0646 L/kg
same,k12_pop,[4]; [13],2.6 h⁻¹
same,k21_pop,[4]; [13],13.6 h⁻¹
same,kpop (first-order rate constant of elimination),[4]; [13],1.47 h⁻¹
O=c1c(O)c(-c2ccc(O)c(O)c2)oc2cc(O)cc(O)c12 [quercetin],recovery,[5],≥ 87.8%
